Format in all cases: biochemical
One assay has as its target T1, MAO-A (Homo sapiens, UniProt P21397).
T1 construct: purchased Sigma-Aldrich Co. LLC
T1 sequence (P21397 1-527): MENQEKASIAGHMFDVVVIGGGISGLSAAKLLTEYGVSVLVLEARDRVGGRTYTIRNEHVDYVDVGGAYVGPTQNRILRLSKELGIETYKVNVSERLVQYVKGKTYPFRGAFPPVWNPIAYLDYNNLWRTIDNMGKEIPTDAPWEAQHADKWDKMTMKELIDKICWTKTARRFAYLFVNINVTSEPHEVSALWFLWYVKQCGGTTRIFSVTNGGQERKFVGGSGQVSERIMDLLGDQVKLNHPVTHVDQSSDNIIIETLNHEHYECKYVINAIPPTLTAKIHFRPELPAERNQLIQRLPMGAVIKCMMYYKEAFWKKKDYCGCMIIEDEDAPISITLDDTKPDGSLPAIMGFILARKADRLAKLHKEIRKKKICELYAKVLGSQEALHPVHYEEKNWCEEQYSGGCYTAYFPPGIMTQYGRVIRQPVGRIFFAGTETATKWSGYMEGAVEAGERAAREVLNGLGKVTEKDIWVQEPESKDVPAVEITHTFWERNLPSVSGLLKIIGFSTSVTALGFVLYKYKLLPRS
The assay can be described thus: Measurement of MAO-A inhibitory activity (MAO-Glo Assay). The procedure: (1) Measurement of MAO-A Inhibitory Activity
The MAO-A inhibitory activity evaluation described below followed the protocol of MAO-Glo (registered trademark) Assay of Promega KK.
(§1) A test compound dissolved in 4% DMSO was added by 12.5 μL to 25 μL reaction solution (100 mM HEPES (pH 7.5), 5% glycerol) containing 400 ng of MAO-A enzyme (Sigma-Aldrich Co. LLC.), and the mixture was reacted at room temperature for 10 min. MAO substrate (Promega KK) (160 μM) was added by 12.5 μL to start the reaction. After reaction at room temperature for 60 min, Luciferine detection reagent (Promega KK) (50 μL) was added to terminate the reaction. After reaction at room temperature for 20 min with stirring, the luminescence was measured by Envision (PerkinElmer). The MAO-A inhibitory rate (%) of the test compound was calculated by the following formula. inhibitory rate (%)=(1−(test compound count−blank)÷(control−blank)×100
The count of the MAO-A enzyme reaction mixture under compound non-addition conditions is indicated as control, and the count under compound non-addition and MAO-A enzyme non-addition conditions is indicated as blank.

The next assay addresses T2, MAO-B (Homo sapiens, UniProt P27338).
T2 construct: purchased Sigma-Aldrich Co. LLC
T2 sequence (P27338 1-520): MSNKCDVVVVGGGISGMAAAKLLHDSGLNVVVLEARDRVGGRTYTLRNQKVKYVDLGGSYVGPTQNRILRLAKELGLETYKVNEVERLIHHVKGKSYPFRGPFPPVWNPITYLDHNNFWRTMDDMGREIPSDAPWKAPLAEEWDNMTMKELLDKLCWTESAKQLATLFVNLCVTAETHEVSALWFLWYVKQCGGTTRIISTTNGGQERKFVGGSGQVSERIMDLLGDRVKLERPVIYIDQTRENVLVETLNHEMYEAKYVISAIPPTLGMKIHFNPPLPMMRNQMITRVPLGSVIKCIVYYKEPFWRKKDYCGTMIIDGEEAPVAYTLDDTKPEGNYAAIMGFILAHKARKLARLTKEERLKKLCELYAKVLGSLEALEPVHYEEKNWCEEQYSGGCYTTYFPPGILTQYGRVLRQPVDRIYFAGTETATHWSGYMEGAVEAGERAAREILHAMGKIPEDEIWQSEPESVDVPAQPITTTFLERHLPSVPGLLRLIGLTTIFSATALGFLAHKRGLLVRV
The assay can be described thus: Measurement of MAO-B inhibitory activity (MAO-Glo Assay). How it is done:
(2) Measurement of MAO-B Inhibitory Activity
The MAO-B inhibitory activity evaluation described below followed the protocol of MAO-Glo (registered trademark) Assay of Promega KK.
as §1, with “glycerol, 10% DMSO)” for “glycerol)”, “MAO-B” for “MAO-A”, “(16” for “(160”
The count of the MAO-B enzyme reaction mixture under compound non-addition conditions is indicated as control, and the count under compound non-addition and MAO-B enzyme non-addition conditions is indicated as blank.

The target of the next assay is T3, human LSD1(171-852) (Homo sapiens, UniProt O60341).
T3 construct: to give hLSD1(171-852) purified product; made in house; host or cells: Escherichia coli C43(DE3) pLysS
The assay can be described thus: Measurement of LSD1 inhibitory activity (time-resolved fluorescence, biotin-histone H3 mono methylated K4 peptide). The settings on record: read-out: LSD1 IC50 value. How it is done:
When the turbidity reached 600 Klett units, the culture temperature was changed to 16° C., IPTG having a final concentration of 0.5 mM was added to induce expression, and the cells were cultured further for 21 hr. The culture medium was centrifuged at 9,000 g for 10 min, and Escherichia coli pellets were recovered.
Escherichia coli pellets in 9 L of the culture medium were suspended in 1340 mL of an extraction buffer (PBS, 5% (V/V) Glycerol), and 6700 units of Benzonase (Merck) were added. Using Branson ultrasonic disintegrator, the suspension was disrupted by ultrasonication for 3 min, and centrifuged at 33,000 g for 20 min, and the supernatant was recovered.
(5) Measurement of LSD1 Inhibitory Activity
After reaction at room temperature for 20 min, 1 mM 2-PCPA solution (5 μL) was added to terminate the reaction. A detection solution (800 mM potassium fluoride, 0.1% BSA) containing europium-labeled antihistone H3 antibody (Wako Pure Chemical Industries, Ltd.) and Streptavidin-XL665 (Cisbio) was further added by 5 μL, and the mixture was left standing for 60 min. A time-resolved fluorescence (excitation 320 nm, emission 615 nm, 665 nm) was measured by Envision (PerkinElmer). The LSD1 inhibitory rate (%) of the test compound was calculated by the following formula. inhibitory rate (%)=(1−(test compound count−blank)÷(control−blank)×100
The count of the LSD1 enzyme reaction mixture under compound non-addition conditions is indicated as control, and the count under compound non-addition and LSD1 enzyme non-addition conditions is indicated as blank.

Counter-ions that a name gives are not always drawn.

With `CN1CCN(c2cccc(C(=O)Nc3ccc([C@@H]4C[C@H]4NCC4CC4)cc3)c2)CC1` (relative stereo) [Example 131, N-(4-{trans-2-[(cyclopropyl-methyl)amino]-cyclopropyl}-phenyl)-3-(4-methylpiperazin-l-yl)benzamide], the IC50 against MAO-A was greater than 10 µM; on MAO-B it was greater than 10 µM; on human LSD1(171-852), less than 0.1 µM.

For the compound `O=C(Nc1ccc([C@@H]2C[C@H]2NCC2CC2)cc1)c1cnc(-c2ccccc2)o1` (relative stereo) [Example 104, N-(4-{trans-2-[(cyclopropylmethyl)-amino]cyclopropyl}-phenyl)-2-phenyl-1,3-oxazole-5-carboxamide], the concentration for half-maximal inhibition (IC50) against MAO-A was greater than 10 µM; against MAO-B, greater than 10 µM; on human LSD1(171-852), less than 0.1 µM.

Turning to `O=C(Nc1ccc([C@@H]2C[C@H]2NCc2ccccc2F)cc1)c1ccccc1` (relative stereo) [Example 15, N-(4-{trans-2-[(2-fluoro-benzyl)amino]-cyclopropyl}-phenyl)benzamide], the IC50 against MAO-A is 6 µM; against MAO-B it was greater than 10 µM; on human LSD1(171-852) it was less than 0.1 µM.

As to `O=C(Nc1ccc([C@@H]2C[C@H]2NCC2CC2)cc1)c1ccc(-n2cccn2)cc1` (relative stereo) [Example 94, N-(4-{trans-2-[(cyclopropylmethyl)-amino]cyclopropyl}-phenyl)-4-(1H-pyrazol-1-yl)benzamide], the IC50 on MAO-A was greater than 10 µM; against MAO-B it was greater than 10 µM; at human LSD1(171-852) it was less than 0.1 µM.

Consider `O=C(Nc1ccc([C@@H]2C[C@H]2NCc2cc3cccnc3s2)cc1)c1cccc(C(F)(F)F)c1` (relative stereo) [Example 161, N-(4-{trans-2-[(thieno[2,3-b]pyridin-2-ylmethyl)amino]cyclopropyl}phenyl)-3-(trifluoromethyl)benzamide hydrochloride], for which the half-maximal inhibitory concentration (IC50) against MAO-A was 4.1 µM; against MAO-B, greater than 10 µM; on human LSD1(171-852) it was less than 0.1 µM.

With `CCCCCCCCCCCCN[C@@H]1C[C@H]1c1ccc(NC(=O)c2ccccc2)cc1` (relative stereo) [Example 22, N-{4-[trans-2-(dodecylamino)-cyclopropyl]-phenyl}benzamide], the results for the IC50 against MAO-A, at MAO-B and on human LSD1(171-852) were 3.6 µM, 2.6 µM and 0.41 µM, respectively.

Take `O=C(Nc1ccc([C@@H]2C[C@H]2NCC2CC2)cc1)c1cccc(C(F)(F)F)c1` (relative stereo) [Example 65, N-(4-{trans-2-[(cyclopropylmethyl)amino]cyclopropyl}phenyl)-3-(trifluoromethyl)benzamide hydrochloride]: the values for the IC50 against MAO-A, at MAO-B and on human LSD1(171-852) were 8.6 µM, 9.6 µM and less than 0.1 µM, respectively.

As for `CN(C)c1cccc(C(=O)Nc2ccc([C@@H]3C[C@H]3NCC3CC3)cc2)c1` (relative stereo) [Example 83, N-(4-{trans-2-[(cyclopropylmethyl)amino]cyclopropyl}phenyl)-3-(dimethylamino)benzamide bis(trifluoroacetate)], the IC50 was greater than 10 µM against MAO-A, greater than 10 µM against MAO-B and less than 0.1 µM on human LSD1(171-852).

On to `CCCCCCCCN[C@@H]1C[C@H]1c1ccc(NC(=O)c2ccccc2)cc1` (relative stereo) [Example 2, N-{4-[trans-2-(octylamino)cyclopropyl]phenyl}benzamide], for which the results for the IC50 on MAO-A, on MAO-B and at human LSD1(171-852) were 9.3 µM, greater than 10 µM and 0.2 µM, respectively.

With `COc1ccc(CN[C@@H]2C[C@H]2c2ccc(NC(=O)c3ccc(-c4ccccc4)cc3)cc2)cn1` (relative stereo) [Example 54], the IC50 against MAO-A is 0.85 µM; on MAO-B, 1.5 µM; at human LSD1(171-852) it was less than 0.1 µM.

With `CC(N[C@@H]1C[C@H]1c1ccc(NC(=O)c2ccc(-c3ccccc3)cc2)cc1)c1ccccc1` (relative stereo) [Example 47, N-(4-{trans-2-[(1-phenylethyl)amino]-cyclopropyl}phenyl)-biphenyl-4-carboxamide], the IC50 against MAO-A worked out at 1.8 µM; at MAO-B it was 1.7 µM; at human LSD1(171-852), 0.19 µM.

As for `O=C(Nc1ccc([C@@H]2C[C@H]2NCC2CC2)cc1)c1ccc(-c2cc[nH]n2)cc1` (relative stereo) [Example 113, N-(4-{trans-2-[(cyclopropylmethyl)amino]cyclopropyl}phenyl)-4-(1H-pyrazol-3-yl)benzamide hydrochloride], the 50% inhibitory concentration (IC50) on MAO-A is 5.7 µM; against MAO-B, greater than 10 µM; on human LSD1(171-852) it was less than 0.1 µM.

For the compound `O=C(Nc1ccc([C@@H]2C[C@H]2NCC2CC2)cc1)c1ccc(-c2cnco2)cc1` (relative stereo) [Example 95, N-(4-{trans-2-[(cyclopropylmethyl)-amino]cyclopropyl}-phenyl)-4-(1,3-oxazol-5-yl)benzamide], the IC50 against MAO-A was greater than 10 µM; at MAO-B, greater than 10 µM; at human LSD1(171-852) it was less than 0.1 µM.

Consider `O=C(Nc1ccc(C(=O)Nc2ccc([C@@H]3C[C@H]3NCC3CC3)cc2)cc1)c1ccccc1` (relative stereo) [Example 80, N-(4-{trans-2-[(cyclopropylmethyl)amino]cyclopropyl}phenyl)-4-[(phenylcarbonyl)amino]benzamide hydrochloride], for which the values for the IC50 against MAO-A, against MAO-B and on human LSD1(171-852) were greater than 10 µM, greater than 10 µM and less than 0.1 µM, respectively.

Take `O=C(Nc1ccc([C@@H]2C[C@H]2NCC2CC2)cc1)c1coc(-c2ccccc2)n1` (relative stereo) [Example 103, N-(4-{trans-2-[(cyclopropylmethyl)-amino]cyclopropyl}-phenyl)-2-phenyl-1,3-oxazole-4-carboxamide]: the IC50 was greater than 10 µM against MAO-A, greater than 10 µM at MAO-B and less than 0.1 µM on human LSD1(171-852).

For the origin of these results see US9682925B2, “Cyclopropaneamine compound” (TAKEDA PHARMACEUTICAL COMPANY LIMITED, priority 2011, dated 2017).
